Drawing on the METLIN SMRT retention time set (Domingo-Almenara et al. 2019), this text covers RP-LC retention time for 79 compounds.

This data set can be described thus: gradient 5% acetonitrile 3 min, to 50% in 2 min, to 85% in 15 min, held 3 min, 100 µL/min. As to conditions: column: Zorbax Extend-C18 2.1 x 50 mm; eluents: water / acetonitrile, 0.1% formic acid. In a few lines:
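Pure standards were run in mixtures of ~100 molecules by HPLC coupled to a quadrupole time-of-flight mass spectrometer. The column was a Zorbax Extend-C18 (2.1 × 50 mm, 1.8 μm) at 100 μL/min, with water and acetonitrile each containing 0.1% formic acid, in positive and negative ionization mode. Dead and dwell volumes were 40 μL and 900 μL. Retention time was taken from computationally picked adduct peaks, each manually inspected, with data collected over 3 months.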
Consider `Cn1nc2n(c1=O)CCN(S(=O)(=O)c1ccc(C#N)cc1)CC2`, for which the RP-LC retention time was 655 s.
As for `O=C(Cc1csc2nc(-c3ccccc3)cn12)Nc1ccc(F)c(Cl)c1`, the RP-LC retention time stood at 902 s.
In the case of `CC1(C)CC(=O)C2=C(C1)Nc1ccccc1N(CC(=O)NCc1ccncc1)C2c1ccco1` (centres undefined), the RP-LC retention time is 631 s.
Next, `O=C(NC1CCSC1=O)c1ccccc1` (centres undefined): 638 s; `Cc1ccc(-c2cc(C(N)=O)[nH]n2)cc1C`: 690 s.
Turning to `CC(C)n1cnc(S(=O)(=O)N2CCC(C(=O)NCc3cccs3)CC2)c1`, the RP-LC retention time is 701 s.
With `Cc1ccc(S(=O)(=O)Nc2cccc(-c3cn4ccccc4n3)c2)cc1[N+](=O)[O-]`, the RP-LC retention time is 681 s.
The result for `CCn1ccc2sc(C)c(C(=O)NCc3ccc(OC)cc3OC)c2c1=O` reads 814 s.
In the case of `CCc1nc2cc(N3CCCC(C(=O)NC(C)C)C3)cnc2nc1CC` (centres undefined), the RP-LC retention time is 747 s.
The result for `CCOc1ccccc1-n1nnc(-c2nn3c(Cc4ccccc4)nnc3s2)c1C` reads 857 s; that for `O=C(Nc1cccc(Cl)c1)c1cnn2c1CCCC2`, 814 s; that for `Cc1ccc(-c2ccc3nn(Cc4nc(-c5cccc(Br)c5)no4)c(=O)n3n2)cc1`, 1070 s.
Consider `Cc1ccsc1C(=O)NC1CCc2nnc(C3CC3)n2CC1` (centres undefined), for which the RP-LC retention time amounted to 587 s.
As for `O=S(=O)(c1ccc2c(c1)OCCO2)N(CCc1cccs1)Cc1cccnc1`, the RP-LC retention time is 655 s.
`CCCN1CCN(C(=O)C2Cc3cc(S(=O)(=O)N4CCCCC4)ccc3N2C(C)=O)CC1` (centres undefined) yielded an RP-LC retention time of 630 s.
For the compound `CCCNC(=O)C1CCCN(c2nc3ncn(CC(=O)Nc4cc(F)ccc4C)c(=O)c3s2)C1` (centres undefined), the RP-LC retention time was determined as 705 s.
Turning to `O=C(Nc1cnc(N2CCCCCC2)nc1)C1CCC1`, the RP-LC retention time is 778 s.
Consider `Cc1nc(C2(C)CCN(S(=O)(=O)c3ccccc3Cl)CC2)no1`, for which the RP-LC retention time was determined as 911 s.
As for `COc1cccc(NC(=O)N2CCN(c3cc(C)nc(N4CCCC4)n3)CC2)c1`, the RP-LC retention time turned out to be 657 s.
`Cc1ccc(-c2nc(-c3ccc4nncn4c3)no2)cc1F` came in with an RP-LC retention time of 764 s.
The result for `COc1ccc(F)cc1S(=O)(=O)NCCOc1ccc(-c2ccco2)nn1` reads 742 s; that for `CCOc1ccc(NC(=O)C2CCN(S(=O)(=O)c3ccc4c(c3)CCCC(=O)N4)CC2)cc1`, 816 s.
As to `O=C(NC1CCCc2ccccc21)c1ccc(-n2nc(N3CCCC3)ccc2=O)cc1` (centres undefined), the RP-LC retention time was found to be 920 s.
As to `COc1ccc(-c2cn3c(CC(=O)Nc4cccc(C(F)(F)F)c4)csc3n2)cc1OC`, the RP-LC retention time came out at 841 s.
The result for `O=S(=O)(c1ccccc1)N1CCC(N2C[C@H](Oc3ccccc3)[C@@H]2c2ccncc2)CC1` reads 733 s; that for `c1cc(-c2nc(-c3ccnc(N4CCCC4)c3)no2)ccn1`, 594 s; that for `O=C(Cc1cccc(C(F)(F)F)c1)Nc1cnn(-c2ncc(N3CCCC3)cn2)c1`, 907 s.
In turn, `O=C(NCCCN1CCCc2ccccc21)C1CCc2nc(N3CCCCC3)ncc2C1` (centres undefined) gave an RP-LC retention time of 827 s.
The compound `CCn1c(CCc2ccccc2NS(=O)(=O)c2cccc3nsnc23)nc2ccccc21` gave an RP-LC retention time of 713 s.
`Cc1c(-c2noc(-c3ccc(F)cc3)n2)nnn1Cc1ccccc1` yielded an RP-LC retention time of 1060 s.
Compound `Cc1nc(CC(=O)Nc2cc(F)cc(F)c2)cs1` showed an RP-LC retention time of 796 s.
Compound `Cc1ccccc1Nc1c(-c2ccccc2O)nc2cccc(C)n12` showed an RP-LC retention time of 676 s.
`Cc1ccc2c(C(=O)N3CCC(C)CC3)cc(NC(=O)C3CCC3)cc2n1` returned an RP-LC retention time of 652 s.
In turn, `CCCOc1ccc(CN2C[C@@H](CO)[C@H](c3ccncc3)C2)cc1` displayed an RP-LC retention time of 575 s.
`Cc1csc2nc(CNS(=O)(=O)c3cccnc3)cn12` displayed an RP-LC retention time of 544 s.
Consider `O=C(NCc1ccc2c(c1)OCO2)C1CCCN(c2ncc(-c3cccc(F)c3)cn2)C1` (centres undefined), for which the RP-LC retention time was found to be 998 s.
Next, `O=C(c1ccccn1)N1CCN(c2cc(-c3ccccc3)ncn2)CC1`: 551 s.
For the compound `CCN1C(=O)COc2ccc(-c3noc(Cc4cccc(OC)c4)n3)cc21`, the RP-LC retention time came to 1000 s.
Regarding `Nc1ccc(/C=C/c2ccc3ncccc3c2)cc1`, the RP-LC retention time is 643 s.
Compound `CC(C)c1ccc(S(=O)(=O)Nc2cnc(N3CCNCC3)c(C(=O)NCC3CCCO3)c2)cc1` (centres undefined) registered an RP-LC retention time of 643 s.
Compound `Cc1nc([N+](=O)[O-])c(Sc2nc3ccccc3[nH]2)n1Cc1ccccc1` returned an RP-LC retention time of 702 s.
`O=C(NCc1ccc2c(c1)OCO2)C1Cn2cccc2C(=O)N1Cc1ccccc1` (centres undefined) yielded an RP-LC retention time of 805 s.
Consider `O=C(NCc1cccnc1)c1nnc(-c2ccc(S(=O)(=O)N3CCOCC3)cc2)o1`, for which the RP-LC retention time was determined as 596 s.
`Cc1cccc(-c2noc(CN3C(=O)COc4cc(Cl)ccc43)n2)c1`: the RP-LC retention time worked out at 1160 s.
The result for `O=C(NC1CCCCC1)C1CCCN(c2ccc(=O)n(-c3cccc(F)c3)n2)C1` (centres undefined) reads 785 s; that for `CSc1ccc(-c2nc3cnccn3c2NC2CCCC2)cc1`, 914 s.
`O=C1CC(C(=O)N2CCOCC2)CN1CCc1c[nH]c2ccc(Cl)cc12` (centres undefined) returned an RP-LC retention time of 677 s.
As to `Cc1ccnc(N2CCCC(C(=O)NCCN(CCc3ccccc3)Cc3ccco3)C2)n1` (centres undefined), the RP-LC retention time was 671 s.
For `CSc1nc2ccc3nc(NC(=O)c4ccc([N+](=O)[O-])o4)sc3c2s1`, the RP-LC retention time turned out to be 930 s.
In turn, `O=C([C@@H]1C[C@H](Oc2cccnc2)CN1C(=O)c1ccc2ncccc2c1)N1CCCC1` gave an RP-LC retention time of 544 s.
As for `O=C(Nc1ccccc1F)C(=O)c1cn(CC(=O)N2CCOCC2)c2ccccc12`, the RP-LC retention time was 906 s.
Consider `O=C(CN1CCN(Cc2ccc(F)cc2)C1=O)NCc1ccccc1C(F)(F)F`, for which the RP-LC retention time worked out at 866 s.
In turn, `O=C(CN1C(=O)COc2ccc(S(=O)(=O)N3CCOCC3)cc21)NCCc1c[nH]c2ccccc12` came in with an RP-LC retention time of 777 s.
Take `Cc1ccccc1S(=O)(=O)N1CCC(C(=O)NCc2csc(-c3cccs3)n2)CC1`: the RP-LC retention time stood at 898 s.
With `Cc1cccc2nnc(N3CCCC(C(=O)Nc4ccc5c(c4)OCCO5)C3)n12` (centres undefined), the RP-LC retention time worked out at 669 s.
In turn, `O=C(c1ccccn1)N1CCC(n2nc(-c3ccsc3)ccc2=O)CC1` showed an RP-LC retention time of 641 s.
Next, `O=C(NCc1csc(C2CCCN(C(=O)c3ccc(F)cc3F)C2)n1)C1CCC1` (centres undefined): 699 s; `CCc1nnc(-c2ccc3ccn(CC(=O)Nc4ccc(OC)cc4)c3c2)o1`: 763 s; `COc1ccc(NC(=O)Cn2c(=O)n(-c3ccccc3)c(=O)c3c2cc(C)n3C)cc1Cl`: 842 s.
Consider `Cc1sc2cc(C(=O)NC(C)C)[nH]c2c1CN1CCCCC1`, for which the RP-LC retention time stood at 643 s.
The result for `CC(C)S(=O)(=O)N[C@H]1CCOC[C@@H]1c1ccc(-c2ccc(C#N)s2)cc1` reads 958 s.
On to `CC(C)c1ccc(S(=O)(=O)N2CCC(C)(C(=O)NCc3ccccc3)CC2)cc1`, for which the RP-LC retention time turned out to be 1050 s.
The result for `O=C(Cn1nc2c(c1NC(=O)Cc1noc3ccccc13)CSC2)NCC1CCCO1` (centres undefined) reads 853 s; that for `Cc1ccc(NC(=O)Cn2c(=O)n(-c3ccc(F)cc3)c3ncccc32)c(C)c1`, 875 s; that for `Cc1c(C(=O)O)nnn1-c1ccc2c(c1)CCC2`, 759 s.
Regarding `O=C(NCc1ccccc1Cl)c1nc(Cn2c(=O)oc3ccccc32)no1`, the RP-LC retention time was 946 s.
Next, `CC(C)(C)c1noc(-c2ccnc(-n3cnc(C(=O)N4CCc5ccccc5C4)c3)c2)n1`: 1080 s; `CCCNc1cc(N2CCC(CCC(=O)Nc3ccc4c(c3)OCCO4)CC2)ncn1`: 682 s.
Regarding `Cc1ccc(-c2csc3c(=O)n(CC(=O)NC4CCCC4)cnc23)cc1`, the RP-LC retention time was determined as 912 s.
Compound `Cc1nn(C)cc1CN(C)C(=O)CC(c1ccccc1)c1ccccc1` had an RP-LC retention time of 765 s.
Compound `Cc1ccc(CNc2c(-c3cccc(Cl)c3)nc3ncccn23)cc1` gave an RP-LC retention time of 901 s.
`Cn1nccc1C(=O)N1CCN(S(=O)(=O)c2ccc3c(c2)sc(=O)n3C)CC1` gave an RP-LC retention time of 699 s.
The result for `COC(=O)CN1C(=O)Nc2ccc(C)cc2C1c1ccccc1` (centres undefined) reads 840 s.
`Cc1oc(C2CCN(S(=O)(=O)c3ccc(F)cc3)CC2)nc1C(=O)N1CCCC1` had an RP-LC retention time of 890 s.
The result for `CCn1ncc(Cl)c1C(=O)N1CCCC1c1c(C)noc1C` (centres undefined) reads 734 s; that for `COc1ccc(CSc2nccc3c2ccn3CC(=O)N2CCN(c3ccccc3)CC2)cc1`, 786 s; that for `O=C(CSCc1nc2cccnc2n1C1CCCCC1)N1CCN(c2ccccn2)CC1`, 649 s.
Take `CCCn1nc(CNC(=O)c2ccoc2)c2ccccc21`: the RP-LC retention time turned out to be 789 s.
As to `O=C(NCCc1csc2nc(-c3cccs3)nn12)c1ccc(Br)o1`, the RP-LC retention time was 769 s.
